What was measured:
Assay in all cases: relative viability (nuclei count vs DMSO), 5 days (fraction); higher = more cells survive
[1] = compound: COc1cc(-c2nn([C@H]3CC[C@H](N4CCN(C(C)=O)CC4)CC3)c3ncnc(N)c23)ccc1NC(=O)c1cc2ccccc2n1C + C[C@@H](Oc1cc(-c2cnn(C3CCNCC3)c2)cnc1N)c1c(Cl)ccc(F)c1Cl [Crizotinib] (partner 1 µM)
Procedure, shortened: (§1)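 Each reported value is a median over duplicate plates. It expresses relative viability: treated-well nuclei count divided by vehicle-well nuclei count. Lung cancer cell lines in 1536-well plates were dosed by pin tool a day after seeding, alone with one drug or with a fixed anchor-drug dose plus five library-drug doses (not always all listed) in √10 steps, and nuclei were counted after 5 days.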

[2] = compound: COc1cc(-c2nn([C@H]3CC[C@H](N4CCN(C(C)=O)CC4)CC3)c3ncnc(N)c23)ccc1NC(=O)c1cc2ccccc2n1C + Nc1nc2[nH]cc(CCc3ccc(C(=O)N[C@@H](CCC(=O)O)C(=O)O)cc3)c2c(=O)[nH]1 [Pemetrexed] (partner 0.2 µM)
Procedure, shortened: as §1

[3] = compound: COc1cc(-c2nn([C@H]3CC[C@H](N4CCN(C(C)=O)CC4)CC3)c3ncnc(N)c23)ccc1NC(=O)c1cc2ccccc2n1C + O=C(c1cc(Cc2n[nH]c(=O)c3ccccc23)ccc1F)N1CCN(C(=O)C2CC2)CC1 [Olaparib] (partner 8 µM)
Procedure, shortened: as §1

Midostaurin + Linsitinib = compound: CO[C@@H]1[C@H](N(C)C(=O)c2ccccc2)C[C@H]2O[C@]1(C)n1c3ccccc3c3c4c(c5c6ccccc6n2c5c31)C(=O)NC4 [Midostaurin] + C[C@]1(O)C[C@@H](c2nc(-c3ccc4ccc(-c5ccccc5)nc4c3)c3c(N)nccn32)C1 [Linsitinib] (partner 1 µM)
Procedure, shortened: as §1

[4] = compound: COc1cc(-c2nn([C@H]3CC[C@H](N4CCN(C(C)=O)CC4)CC3)c3ncnc(N)c23)ccc1NC(=O)c1cc2ccccc2n1C + COc1cccc2cc(-c3nc([C@H]4CC[C@H](C(=O)O)CC4)n4ncnc(N)c34)[nH]c12 [OSI-027] (partner 0.5 µM)
Procedure, shortened: as §1

Cell Line | relative viability ([1]; first compound 0.0128 µM) | relative viability ([1]; first compound 0.04048 µM) | relative viability ([1]; first compound 0.128 µM) | relative viability ([1]; first compound 1.28 µM) | relative viability ([2]; first compound 0.0128 µM) | relative viability ([2]; first compound 0.04048 µM) | relative viability ([2]; first compound 0.128 µM) | relative viability ([2]; first compound 1.28 µM) | relative viability ([3]; first compound 0.0128 µM) | relative viability ([3]; first compound 0.04048 µM) | relative viability ([3]; first compound 0.128 µM) | relative viability ([3]; first compound 1.28 µM) | relative viability (Midostaurin + Linsitinib; first compound 0.01 µM) | relative viability (Midostaurin + Linsitinib; first compound 0.03162 µM) | relative viability (Midostaurin + Linsitinib; first compound 0.1 µM) | relative viability (Midostaurin + Linsitinib; first compound 0.3162 µM) | relative viability ([4]; first compound 0.0128 µM) | relative viability ([4]; first compound 0.04048 µM) | relative viability ([4]; first compound 0.128 µM) | relative viability ([4]; first compound 1.28 µM)
NCI-H1975 | 0.869 | 1.18 | 0.966 | 0.424 | 0.318 | 0.29 | 0.297 | 0.255 | 0.819 | 0.978 | 0.794 | 0.494 | 0.92 | 0.959 | 0.727 | 0.575 | 0.676 | 0.669 | 0.611 | 0.277
CAL-12T | 0.621 | 0.818 | 0.581 | 0.413 | 1.39 | 1.21 | 1.15 | 1.12 | 0.682 | 0.763 | 0.811 | 0.697 | 0.721 | 0.672 | 0.808 | 0.676 | 0.638 | 0.497 | 0.7 | 0.461
NCI-H1623 |  |  |  |  |  |  |  |  |  |  |  |  |  |  |  |  | 0.422 | 0.342 | 0.399 | 0.37
NCI-H1703 | 0.585 | 0.73 | 0.496 | 0.206 |  |  |  |  | 0.386 | 0.283 | 0.386 | 0.184 | 0.838 | 0.69 | 0.672 | 0.296 |  |  |  | 
Calu-6 | 0.692 | 0.806 | 0.609 | 0.596 |  |  |  |  | 0.581 | 0.611 | 0.516 | 0.424 | 0.946 | 0.889 | 1 | 0.922 |  |  |  | 
EBC-1 | 0.193 | 0.198 | 0.24 | 0.185 |  |  |  |  | 0.679 | 0.746 | 0.546 | 0.654 | 0.901 | 0.735 | 0.873 | 0.24 |  |  |  | 
IA-LM | 1.02 | 1.07 | 0.903 | 1.1 |  |  |  |  | 0.871 | 0.877 | 1.03 | 0.961 | 0.557 | 0.378 | 0.711 | 0.673 |  |  |  | 
NCI-H1793 |  |  |  |  | 1.04 | 0.771 | 0.871 | 0.617 | 0.989 | 1.08 | 0.731 | 0.427 | 1.08 | 0.77 | 0.651 | 0.559 | 0.369 | 0.177 | 0.237 | 0.186
ChaGo-K-1 | 1.17 | 1.13 | 1.03 | 0.882 | 0.258 | 0.26 | 0.252 | 0.237 | 0.488 | 0.452 | 0.409 | 0.328 |  |  |  |  | 0.607 | 0.532 | 0.519 | 0.464
NCI-H2342 |  |  |  |  | 0.762 | 0.821 | 0.781 | 0.771 | 0.511 | 0.423 | 0.388 | 0.371 |  |  |  |  | 0.521 | 0.706 | 0.644 | 0.493
NCI-H1299 | 0.966 | 1.07 | 0.987 | 1.13 |  |  |  |  | 0.978 | 1.01 | 0.914 | 1.01 | 0.943 | 0.91 | 0.95 | 0.616 |  |  |  | 
NCI-H1650 | 0.898 | 1.07 | 0.957 | 0.638 | 0.332 | 0.384 | 0.348 | 0.468 | 0.822 | 0.894 | 0.804 | 0.731 |  |  |  |  | 0.54 | 0.707 | 0.492 | 0.577
SW 900 |  |  |  |  | 0.487 | 0.489 | 0.469 | 0.373 | 1 | 1.17 | 0.845 | 0.574 |  |  |  |  | 0.536 | 0.588 | 0.497 | 0.356
NCI-H727 | 0.745 |  | 0.626 | 0.587 |  |  |  |  | 0.674 |  | 0.819 | 0.78 | 0.329 | 0.337 | 0.349 | 0.227 | 0.591 |  | 0.477 | 0.47
NCI-H1648 |  |  |  |  | 0.92 | 0.738 | 0.857 | 0.646 | 0.94 | 0.928 | 1.23 | 0.515 |  |  |  |  | 0.27 | 0.257 | 0.274 | 0.276
NCI-H522 |  |  |  |  | 1 | 0.939 | 1.14 | 0.822 | 0.558 | 0.593 | 0.617 | 0.522 |  |  |  |  | 0.8 | 0.725 | 0.812 | 0.651
NCI-H1395 |  |  |  |  | 0.819 | 0.81 | 0.763 | 0.59 | 0.437 | 0.466 | 0.442 | 0.434 | 1.06 | 1.22 | 1.01 | 1.02 | 0.573 | 0.674 | 0.723 | 0.556
A549 | 0.854 | 1.02 | 0.686 | 0.719 |  |  |  |  | 0.302 | 0.47 | 0.465 | 0.271 | 0.609 | 0.59 | 0.511 | 0.423 |  |  |  | 
NCI-H2170 | 1.3 | 1.13 | 1.2 | 0.923 | 0.267 | 0.275 | 0.296 | 0.253 | 0.72 | 0.615 | 0.595 | 0.541 |  |  |  |  | 0.81 | 0.468 | 0.701 | 0.687
NCI-H1563 | 0.625 | 0.805 | 0.926 | 0.729 | 0.755 | 0.778 | 0.853 | 0.582 |  |  |  |  | 1.16 | 1.2 | 1.03 | 1.11 | 0.711 | 0.86 | 0.848 | 0.59
ABC-1 | 1.01 | 0.98 | 0.87 | 0.766 |  |  |  |  | 0.6 | 0.835 | 0.665 | 0.806 | 0.854 | 0.546 | 0.628 | 0.727 | 0.499 | 0.434 | 0.384 | 0.377

— the supplement of paper PMC10307832
